The target of test [1] is T1, Oxysterols receptor LXR-alpha (Homo sapiens, UniProt Q13133).
T1 sequence (Q13133 whole entry): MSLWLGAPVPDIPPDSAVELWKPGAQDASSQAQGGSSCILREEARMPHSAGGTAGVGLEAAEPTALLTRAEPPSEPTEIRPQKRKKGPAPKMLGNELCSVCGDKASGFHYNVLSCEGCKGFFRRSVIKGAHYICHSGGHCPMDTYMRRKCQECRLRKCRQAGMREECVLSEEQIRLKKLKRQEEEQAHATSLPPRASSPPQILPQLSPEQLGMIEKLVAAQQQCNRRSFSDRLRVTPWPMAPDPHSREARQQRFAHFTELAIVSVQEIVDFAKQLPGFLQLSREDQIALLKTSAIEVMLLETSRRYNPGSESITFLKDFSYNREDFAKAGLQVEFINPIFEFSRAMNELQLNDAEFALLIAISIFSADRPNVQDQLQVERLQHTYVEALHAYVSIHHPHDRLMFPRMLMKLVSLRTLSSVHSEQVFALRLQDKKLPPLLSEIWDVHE

In test [2] the target is T2, Oxysterols receptor LXR-beta (Homo sapiens, UniProt P55055).
T2 sequence (P55055 whole entry): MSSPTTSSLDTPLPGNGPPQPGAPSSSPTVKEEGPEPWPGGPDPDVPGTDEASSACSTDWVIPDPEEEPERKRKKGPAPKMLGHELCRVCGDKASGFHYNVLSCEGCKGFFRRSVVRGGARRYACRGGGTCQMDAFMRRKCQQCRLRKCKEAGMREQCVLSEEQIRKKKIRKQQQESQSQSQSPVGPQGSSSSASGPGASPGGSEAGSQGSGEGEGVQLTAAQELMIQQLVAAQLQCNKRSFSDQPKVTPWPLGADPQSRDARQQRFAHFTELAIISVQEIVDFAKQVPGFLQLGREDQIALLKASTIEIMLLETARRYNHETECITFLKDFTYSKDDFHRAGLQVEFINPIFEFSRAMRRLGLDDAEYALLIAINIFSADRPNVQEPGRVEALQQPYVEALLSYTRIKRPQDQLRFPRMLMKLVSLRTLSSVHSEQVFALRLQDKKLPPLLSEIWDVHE

Data on 2 compounds can be found in BindingDB's records for doi:10.1124/jpet.103.052852 (Eli Lilly, 2003).

`CC(C)CC[C@H](O)[C@@H](C)[C@H]1CC[C@H]2[C@@H]3CC=C4C[C@@H](O)CC[C@]4(C)[C@H]3CC[C@]12C` [(1S,2R,5S,10S,11S,14R,15S)-14-[(2S,3S)-3-hydroxy-6-methylheptan-2-yl]-2,15-dimethyltetracyclo[8.7.0.0^{2,7}.0^{11,15}]heptadec-7-en-5-ol]: the Ki in test [1] turned out to be 250 nM; in test [2] it was 490 nM. As to `CC(C)(O)C1OC2CCC3(C)C(O)(CCC4Cc5c([nH]c6ccccc56)C43C)C2=CC1=O` (stereo not drawn) [CAS_57186-25-1], the Ki in test [2] was found to be 1100 nM.
